Patent publication US6462064B1, “Apoptosis inducing adamantyl derivatives and their usage as anti-cancer agents, especially for cervical cancers and dysplasias” (Galderma Research & Development S.N.C., priority 1996, dated 2002)
“Also recorded” adds a separate entry of the source.

Tests used:
cancer cells = assay: List of active compounds: types of cancers and precancers active against; type: cell-based
Source text: As discussed, the adamantyl retinoid derivatives according to the invention which induce apoptosis are useful for treating many different types of cancers.

[1] = test system: human cervical cancer cell lines Caski and C33A; assay: Proliferation assay on cervical cancer cell lines (Example 32, FIG. 6); type: cell-based
Description: Two human cervical cancer cell lines, the Caski and C33A (which contains integrated human papillomavirus sequences) were treated with adapalene at concentrations of 1, 2 and 10 μM for 24, 48 and 96 hours or with tretinoin as a control. Afterward, human cervical cancer cells, which had been treated for […] or 48 hours, were then washed and incubated in a medium lacking adapalene.
After a total incubation time of 96 hours, a proliferation assay was performed to assess the extent of inhibition of proliferation or cell killing. […] The EC50 (concentration of adapalene that provides for 50% inhibition of cell proliferation) for the tested human cervical cancer cell lines was estimated to be approximately 5 μM.

[2] = test system: human cervical cancer cell lines (C33A cells and Caski cells); assay: Proliferation of human cervical cancer cell lines (Example 33, FIG. 7); type: cell-based
Description: Another experiment was also conducted to compare the effect of three different retinoid compounds according to the invention, i.e., 6-[3-(1-adamantyl)-4-methoxyphenyl]-2-naphthoic acid, 2-[3-(1-adamantyl)-4-methoxyphenyl]-5-benzimidazole carboxylic acid, and 6-[3-(1-adamantyl)-4,5-methylenedioxyphenyl]-2-naphthoic acid, a control (DMSO), and a control retinoid (all-trans retinoic acid) on the proliferation of several human cervical cancer cell lines (C33A cells and Caski cells).

[3] = test system: cervical cancer cell lines; assay: Apoptosis, cellular DNA fragmentation ELISA (FIG. 8); type: cell-based, human; conditions: eighteen hours; adapalene 1, 5 and 10 μM, tRA 10 μM, ceramide 0.5 mM
Description: In this experiment cells were labeled with BrdU for six hours. After labeling, cells were treated with vehicle (DM50), or with 10 μM tRA, 0.5 mM ceramide or doses of adapalene of 1, 5 and 10 μM for eighteen hours. Apoptosis was measured using a cellular DNA fragmentation ELISA kit (available from Boehringer). […] Therein, one unit represents the value obtained from cells grown in the presence of vehicle alone.

[4] = test system: Cervical Intraepithelial Neoplasia Level II or III; assay: Phase I/II clinical study, aqueous adapalene gel with cervical cap and collagen sponge; type: in vivo, human; conditions: for CIN Resolved / Improved to CIN I / Overall Response / Overall “cure” / Improved from CIN III to CIN II: Table II
Source text: Level I corresponds to mild cervical dysplasia, II to moderate dysplasia, and III to severe dysplasia, and carcinoma in situ.
A clinical study was designed and approved where an aqueous adapalene gel was delivered with a cervical cap and a collagen sponge in patients with advanced cervical dysplasia (CIN II and CIN III). Inclusion criteria for enrollment included a biopsy proving diagnosis of CIN II or CIN III. Forty-nine patients received the drug and completed the study.

[5] = test system: various human cancer cell lines; assay: Anti-cancer activity against human cancer cell lines over a concentration range (FIGS. 2-4); type: cell-based; conditions: retinoid concentrations 10^−9 M to 10^−5 M
Source text: FIG. 2 compares the activity of selected adamantyl retinoids according to the invention and all-trans-retinoic acid against a human non-small lung carcinoma cell line.
FIG. 3 compares the activity of selected adamantyl retinoids according to the invention and all-trans-retinoic acid against human prostate adenocarcinoma, human metastatic prostate adenocarcinoma, and human prostate carcinoma cell lines.
FIG. 4 compares the activity of selected adamantyl retinoids according to the invention and all-trans-retinoic acid against a human liver cancer cell line.

[6] = test system: human pancreatic cancer BxPC-3 tumor cells; assay: Human xenograft mouse animal model, pancreatic cancer BxPC-3; type: in vivo; conditions: 80 mg/kg intraperitoneally, starting 28 days after inoculation; compared to vehicle control group; FIG. 5
Description: The anti cancer activity of a compound according to the invention, 6-[3-(1-adamantyl)-4,5-methylenedioxyphenyl]-2-naphthoic acid was also evaluated in a human xenograft mouse animal model containing human pancreatic cancer BxPC-3 tumor cells. Starting twenty-eight days after inoculation of tumor cells, said xenograft containing mice were administered the retinoid compound intraperitoneally at a dosage of 80 mg/kg body weight. Also, a control group of said mice was inoculated under similar conditions with the pharmaceutical vehicle used for formulation (but lacking the retinoid compound).

[7] = test system: panel of human tumor cell lines; assay: Cell-based high throughput screening assays, percentage of surviving cells; conditions: active = percentage survival of less than 80; FIG. 1
Description: The anti-cancer activity of various adamantyl retinoid compounds according to the invention was compared to all-trans-retinoic acid using cell-based high throughput screening assays. Specifically, the following compounds were tested in such assays: all-trans-retinoic acid, 6[3(1-adamantyl)-4-methoxyphenyl]-2-naphthoic acid, 2-[3-(1-adamantyl)-4-methoxyphenyl]-5-benzimidazole carboxylic acid, 6-[3-(1-adamantyl)-4-hydroxy-5-methoxyphenyl]-2-naphthoic acid, 6-[3-(1-adamantyl)-4-acetoxymethylphenyl]-2-naphthoic acid and 6-[3-(1-adamantyl)-4,5-methylenedioxyphenyl]-2-naphthoic acid.
These compounds were tested against a panel of human tumor cell lines having a variety of tissue origins, and having distinct tumor characteristics. The tumor cell cultures were exposed to the above retinoid compounds for a specific duration. After such exposure, the percentage of surviving cells was then measured using standard assays.

[8] = length of treatment 4 days (n = 2), patients (percent)
[9] = length of treatment 8 days (n = 23), patients (percent)
[10] = length of treatment 14 days (n = 24), patients (percent)

In the case of `COc1ccc(-c2ccc3cc(C(=O)O)ccc3c2)cc1C12CC3CC(CC(C3)C1)C2` [Compound 1, 6-[3-(1-adamantyl)-4-methoxyphenyl]-2-naphthoic acid], the “Types of Cancers and Precancers Active Against” value (cancer cells) is reported as “brain, cervical (including, e.g.,; also recorded: cervical intraepithelial neoplasia; also recorded: I, II, III), head and neck, leu-; also recorded: kemia, lymphoma, prostate, skin”, the “inhibition of proliferation of cervical cancer cell lines” value ([1]; 1, 2 and 10 μM for 24, 48 and 96 hours) is reported as “inhibit the proliferation of cervical cancer cell lines in a dose-dependent manner” and the EC50 ([1]; Homo sapiens, total incubation time 96 hours, estimated, read-out: EC50 (concentration that provides for 50% inhibition of cell proliferation)) is reported as about 5 µM. The “effect of incubation longer than 24 hours on proliferation” value ([1]; increase between 48 and 96 hours not statistically significant (p>0.05)) was “only a marginal effect on proliferation”, the “concentration at which maximum inhibition of cell proliferation occurred” value ([1]; tested at 1, 2 and 10 μM) was 10 µM and the “effect on proliferation of human cervical cell lines” value (shortened to “effect on proliferation”) [2] was “strong inhibitory effect”. For the same compound, the induction of apoptosis [3] was “comparable to that of cells incubated with ceramide”, the “Response: Complete” value ([4]; 4 days, CIN II (n = 0)) was 0(0.0) and the “Response: Overall” value ([4]; 4 days, CIN II (n = 0)) was 0(0.0). For the same compound, the “Response: Partial” value ([4]; 4 days, CIN II (n = 0)) was 0(0.0), the “Response: Progression” value ([4]; 4 days, CIN II (n = 0)) was 0(0.0) and the “Response: Stable” value ([4]; 4 days, CIN II (n = 0)) was 0(0.0). The “Response: Complete” value ([4]; 4 days, CIN III/CIS (n = 2)) was 0(0.0), the “Response: Overall” value ([4]; 4 days, CIN III/CIS (n = 2)) was 0(0.0) and the “Response: Partial” value ([4]; 4 days, CIN III/CIS (n = 2)) was 0(0.0). For the same compound, the “Response: Progression” value ([4]; 4 days, CIN III/CIS (n = 2)) was 0(0.0), the “Response: Stable” value ([4]; 4 days, CIN III/CIS (n = 2)) was 2(100.0) and the “Response: Complete” value ([4]; 8 days, CIN II (n = 12)) was 4(33.3). The “Response: Overall” value ([4]; 8 days, CIN II (n = 12)) was 8(66.7), the “Response: Partial” value ([4]; 8 days, CIN II (n = 12)) was 4(33.3) and the “Response: Progression” value ([4]; 8 days, CIN II (n = 12)) was 0(0.0). The “Response: Stable” value ([4]; 8 days, CIN II (n = 12)) was 4(33.3), the “Response: Complete” value ([4]; 8 days, CIN III/CIS (n = 11)) was 3(27.3) and the “Response: Overall” value ([4]; 8 days, CIN III/CIS (n = 11)) was 6(54.5). For the same compound, the “Response: Partial” value ([4]; 8 days, CIN III/CIS (n = 11)) was 3(27.3), the “Response: Progression” value ([4]; 8 days, CIN III/CIS (n = 11)) was 0(0.0) and the “Response: Stable” value ([4]; 8 days, CIN III/CIS (n = 11)) was 5(45.4). The “Response: Complete” value ([4]; 14 days, CIN II (n = 14)) was 3(21.4), the “Response: Overall” value ([4]; 14 days, CIN II (n = 14)) was 6(42.9) and the “Response: Partial” value ([4]; 14 days, CIN II (n = 14)) was 3(21.4). The “Response: Progression” value ([4]; 14 days, CIN II (n = 14)) was 0(0.0), the “Response: Stable” value ([4]; 14 days, CIN II (n = 14)) was 8(57.1) and the “Response: Complete” value ([4]; 14 days, CIN III/CIS (n = 10)) was 2(20.0). The “Response: Overall” value ([4]; 14 days, CIN III/CIS (n = 10)) was 3(30.0), the “Response: Partial” value ([4]; 14 days, CIN III/CIS (n = 10)) was 1(10.0) and the “Response: Progression” value ([4]; 14 days, CIN III/CIS (n = 10)) was 0(0.0). The “Response: Stable” value ([4]; 14 days, CIN III/CIS (n = 10)) was 7(70.0), the “CIN Resolved” value ([4]; CIN II, N = 27) was 30% and the “Improved to CIN I” value ([4]; CIN II, N = 27) was 22%. The “Overall Response” value ([4]; CIN II, N = 27) was 52%, the “Overall “cure”” value ([4]; CIN II, N = 27) was 52% and the “CIN Resolved” value ([4]; CIN III, N = 21) was 24%. The “Improved from CIN III to CIN II” value ([4]; CIN III, N = 21) was 29%, the “Improved to CIN I” value ([4]; CIN III, N = 21) was 19% and the “Overall Response” value ([4]; CIN III, N = 21) was 72%. For the same compound, the “Overall “cure”” value ([4]; CIN III, N = 21) was 43%, the “CIN Resolved” value ([4]; Total, N = 48) was 27% and the “Improved from CIN III to CIN II” value ([4]; Total, N = 48) was 13%. The “Improved to CIN I” value ([4]; Total, N = 48) was 21%, the “Overall Response” value ([4]; Total, N = 48) was 61% and the “Overall “cure”” value ([4]; Total, N = 48) was 48%. For the same compound, the “response rates versus length of treatment” value ([4]; eight to fourteen days) was “did not increase”, the “patients with complete response” value ([4]; human, in vivo) was “Twelve” and the “patients with partial response (regressed to CIN I)” value ([4]; human, in vivo) was “eleven”. The “patients with stable disease with no progression” value ([4]; human, in vivo) was “Twenty-six”, the “Response: Complete” value [4, 8] was 0(0.0) and the “Response: Overall” value [4, 8] was 0(0.0). The “Response: Partial” value [4, 8] was 0(0.0), the “Response: Progression” value [4, 8] was 0(0.0) and the “Response: Stable” value [4, 8] was 2(100.0). The “Response: Complete” value [4, 9] was 7(30.4), the “Response: Overall” value [4, 9] was 14(60.8) and the “Response: Partial” value [4, 9] was 7(30.4). For the same compound, the “Response: Progression” value [4, 9] was 0(0.0), the “Response: Stable” value [4, 9] was 9(39.1) and the “Response: Complete” value [4, 10] was 5(20.8). For the same compound, the “Response: Overall” value [4, 10] was 9(37.5), the “Response: Partial” value [4, 10] was 4(16.7) and the “Response: Progression” value [4, 10] was 0(0.0). The “Response: Stable” value [4, 10] was 15(62.5), the “overall response rate (partial plus complete)” value ([4]; ninety days after treatment, 47 patients, eight day or fourteen day treatment) was 48.7% and the adverse effects ([4]; no patient withdrawn because of an adverse event) was “all averse effects reported were mild”. The “highest overall response rate” value ([4]; patients treated for eight days) was 60.8% and the response ([4]; two patients, four day treatment) was “no response”.
In the case of `O=C(O)c1ccc2cc(-c3cc4c(c(C56CC7CC(CC(C7)C5)C6)c3)OCO4)ccc2c1` [Compound 6, 6-[3-(1-adamantyl)-4,5-methylenedioxyphenyl]-2-naphthoic acid], the “Types of Cancers and Precancers Active Against” value (cancer cells) is reported as “brain, breast, head and neck,; also recorded: kidney, leukemia, lung, lym-; also recorded: phoma, myeloma, ovarian,; also recorded: prostate, skin, liver, cervical; also recorded: (including, e.g., cervical; also recorded: intraepithelial neoplasia I, II,; also recorded: III),”, the anti-cancer activity [5] is reported as “significant anti-cancer activity” and the tumor size [6] is reported as “substantial reduction in tumor size”. For the same compound, the “effect on proliferation” value [2] was “strong inhibitory effect”.
With `CC1=C(/C=C/C(C)=C/C=C/C(C)=C/C(=O)O)C(C)(C)CCC1` [all-trans-retinoic acid, reference compound] the “activity against human cancers (percentage of surviving cells)” value [7] was “did not give comparable results”, the anti-cancer activity [5] was “did not exhibit similar activity” and the “effect on proliferation” value [2] was “no significant effect on cell proliferation”. The induction of apoptosis [3] was “did not induce apoptosis significantly”.
